# Measured values reported in patent US20110230481A2, “DERIVATIVES OF TETRABROMOBENZIMIDAZOLE, A PROCESS FOR THE PREPARATION THEREOF, A PHARMACEUTICAL COMPOSITION COMPRISING THE SAME, A METHOD OF USING THE SAME, A METHOD FOR MODULATING OR REGULATING SERINE/THREONINE KINASES, AND SERINE/THREONINE KINASES MODULATING AGENT” (SELVITA S.A., priority 2009, published 2011).
# Key:
# Assay in all cases: KINOMEscan Max
# Assay type in all cases: binding
# [1] = biological target: PIP5K1C (Homo sapiens, UniProt O60331); conditions: 1 μM
# Summary of the method: (§1)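 Competitive displacement format with DNA-tagged human kinase and an immobilized active-site probe; detection by qPCR amplification of the kinase's DNA tag.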
# [2] = biological target: T1, MAP3K4 (Homo sapiens, UniProt Q9Y6R4)
# T1 construct: purchased Ambit Kinomescan (contract panel)
# Summary of the method: as §1
# [3] = biological target: T2, MET(Y1235D) (Homo sapiens, UniProt P08581, Y1235D); conditions: 1 μM
# T2 construct: purchased Ambit (KINOMEscan Max service)
# Summary of the method: as §1
# [4] = biological target: MLCK (Homo sapiens, UniProt Q32MK0)
# Summary of the method: as §1
# [5] = biological target: T3, TGFBR2 (Homo sapiens, UniProt P37173)
# T3 construct: purchased Ambit Kinomescan (contract screening service)
# Summary of the method: as §1
# [6] = biological target: ABL2 (Homo sapiens, UniProt P42684)
# Summary of the method: as §1
# [7] = biological target: T4, DLK (Homo sapiens, UniProt Q12852); conditions: 1 μM
# T4 construct: DNA tag (qPCR read-out)
# Summary of the method: as §1
# [8] = biological target: T5, PIK3CA(H1047L) (Homo sapiens, UniProt P42336, H1047L)
# T5 construct: DNA tag (qPCR read-out)
# Summary of the method: as §1
# [9] = biological target: T6, HIPK2 (Homo sapiens, UniProt Q9H2X6)
# T6 construct: DNA tag (qPCR read-out); purchased Ambit Kinomescan
# Summary of the method: as §1
# [10] = biological target: T7, LKB1 (Homo sapiens, UniProt Q15831)
# T7 construct: purchased Ambit Kinomescan (contract screening)
# Summary of the method: as §1
# [11] = biological target: PDGFRB (Homo sapiens, UniProt P09619)
# Summary of the method: as §1
# [12] = biological target: CASK (Homo sapiens, UniProt O14936)
# Summary of the method: as §1
# [13] = biological target: T8, MERTK (Homo sapiens, UniProt Q12866)
# T8 construct: purchased Ambit (KINOMEscan Max service)
# Summary of the method: as §1
# [14] = biological target: T9, DYRK1B (Homo sapiens, UniProt Q9Y463)
# T9 construct: DNA tag (qPCR read-out); purchased Ambit Kinomescan
# Summary of the method: as §1
# [15] = biological target: ADCK3 (Homo sapiens, UniProt Q8NI60)
# Summary of the method: as §1
# [16] = biological target: T10, ANKK1 (Homo sapiens, UniProt Q8NFD2)
# T10 construct: DNA tag (qPCR label); purchased Ambit Kinomescan (contract screening)
# Summary of the method: as §1
# [17] = biological target: T11, MARK3 (Homo sapiens, UniProt P27448)
# T11 construct: purchased Ambit Kinomescan (contract panel)
# Summary of the method: as §1
# [18] = biological target: T12, MEK1 (Homo sapiens, UniProt Q02750)
# T12 construct: purchased Ambit Kinomescan (contract panel)
# Summary of the method: as §1
# [19] = biological target: TBK1 (Homo sapiens, UniProt Q9UHD2)
# Summary of the method: as §1
# [20] = biological target: T13, MET (Homo sapiens, UniProt P08581); conditions: 1 μM
# T13 construct: purchased Ambit Kinomescan (contract screening)
# Summary of the method: as §1
# [21] = biological target: NEK9 (Homo sapiens, UniProt Q8TD19)
# Summary of the method: as §1
# [22] = biological target: T14, CSF1R (Homo sapiens, UniProt P07333)
# T14 construct: purchased Ambit (KINOMEscan Max panel service)
# Summary of the method: as §1
# [23] = biological target: ABL1(T315I)-phosphorylated (Homo sapiens, UniProt P00519, T315I)
# Summary of the method: as §1
# [24] = biological target: T15, IRAK4 (Homo sapiens, UniProt Q9NWZ3); conditions: 1 μM
# T15 construct: purchased Ambit Kinomescan (contract panel)
# Summary of the method: as §1
# [25] = biological target: LRRK2 (Homo sapiens, UniProt Q5S007)
# Summary of the method: as §1
# [26] = biological target: T16, RET(V804L) (Homo sapiens, UniProt P07949, V804L)
# T16 construct: DNA tag (qPCR read-out)
# Summary of the method: as §1
# [27] = biological target: T17, JAK1(JH2domain-pseudokinase) (Homo sapiens, UniProt P23458); conditions: 1 μM
# T17 construct: JAK1(JH2domain-pseudokinase)
# Summary of the method: as §1
# [28] = biological target: T18, JAK1(JH1domain-catalytic) (Homo sapiens, UniProt P23458); conditions: 1 μM
# T18 construct: JAK1(JH1domain-catalytic); purchased Ambit (KINOMEscan Max service)
# Summary of the method: as §1
# [29] = biological target: T19, CDK4-cyclinD1 (Homo sapiens, UniProt P11802)
# T19 construct: DNA tag (qPCR label); purchased Ambit Kinomescan (contract screening)
# Summary of the method: as §1
# [30] = biological target: T20, EIF2AK1 (Homo sapiens, UniProt Q9BQI3)
# T20 construct: DNA tag (qPCR read-out)
# Summary of the method: as §1
# [31] = biological target: T21, IRAK3 (Homo sapiens, UniProt Q9Y616)
# T21 construct: purchased Ambit (KINOMEscan Max service)
# Summary of the method: as §1
# [32] = biological target: ABL1(F317I)-phosphorylated (Homo sapiens, UniProt P00519, F317I)
# Summary of the method: as §1
# [33] = biological target: T22, PDPK1 (Homo sapiens, UniProt O15530)
# T22 construct: purchased Ambit (KINOMEscan Max service)
# Summary of the method: as §1
# [34] = biological target: T23, ADCK4 (Homo sapiens, UniProt Q96D53)
# T23 construct: DNA tag (qPCR read-out)
# Summary of the method: as §1
# T4 sequence (Q12852 whole entry): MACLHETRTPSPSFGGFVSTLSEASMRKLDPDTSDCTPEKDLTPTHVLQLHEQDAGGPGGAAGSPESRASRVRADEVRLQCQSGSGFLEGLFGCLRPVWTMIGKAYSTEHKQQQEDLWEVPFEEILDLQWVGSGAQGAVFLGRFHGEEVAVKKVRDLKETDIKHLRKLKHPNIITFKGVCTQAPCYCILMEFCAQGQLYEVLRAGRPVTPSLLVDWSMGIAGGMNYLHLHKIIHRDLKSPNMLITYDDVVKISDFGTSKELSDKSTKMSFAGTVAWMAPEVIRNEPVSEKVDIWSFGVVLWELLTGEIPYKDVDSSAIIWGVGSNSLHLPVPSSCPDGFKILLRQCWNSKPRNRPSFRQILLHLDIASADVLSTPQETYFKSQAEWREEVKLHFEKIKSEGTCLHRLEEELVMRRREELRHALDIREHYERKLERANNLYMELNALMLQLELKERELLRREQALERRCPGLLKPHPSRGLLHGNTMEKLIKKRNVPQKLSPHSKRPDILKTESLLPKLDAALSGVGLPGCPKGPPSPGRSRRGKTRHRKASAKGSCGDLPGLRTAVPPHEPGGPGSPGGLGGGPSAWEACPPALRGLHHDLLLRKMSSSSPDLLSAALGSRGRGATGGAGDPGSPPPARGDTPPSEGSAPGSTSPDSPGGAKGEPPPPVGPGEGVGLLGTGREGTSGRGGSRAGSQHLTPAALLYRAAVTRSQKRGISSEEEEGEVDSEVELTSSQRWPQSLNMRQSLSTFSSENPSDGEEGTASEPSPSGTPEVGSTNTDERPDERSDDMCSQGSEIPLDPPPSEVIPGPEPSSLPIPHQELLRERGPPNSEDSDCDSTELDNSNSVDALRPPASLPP
# T9 sequence (Q9Y463 whole entry): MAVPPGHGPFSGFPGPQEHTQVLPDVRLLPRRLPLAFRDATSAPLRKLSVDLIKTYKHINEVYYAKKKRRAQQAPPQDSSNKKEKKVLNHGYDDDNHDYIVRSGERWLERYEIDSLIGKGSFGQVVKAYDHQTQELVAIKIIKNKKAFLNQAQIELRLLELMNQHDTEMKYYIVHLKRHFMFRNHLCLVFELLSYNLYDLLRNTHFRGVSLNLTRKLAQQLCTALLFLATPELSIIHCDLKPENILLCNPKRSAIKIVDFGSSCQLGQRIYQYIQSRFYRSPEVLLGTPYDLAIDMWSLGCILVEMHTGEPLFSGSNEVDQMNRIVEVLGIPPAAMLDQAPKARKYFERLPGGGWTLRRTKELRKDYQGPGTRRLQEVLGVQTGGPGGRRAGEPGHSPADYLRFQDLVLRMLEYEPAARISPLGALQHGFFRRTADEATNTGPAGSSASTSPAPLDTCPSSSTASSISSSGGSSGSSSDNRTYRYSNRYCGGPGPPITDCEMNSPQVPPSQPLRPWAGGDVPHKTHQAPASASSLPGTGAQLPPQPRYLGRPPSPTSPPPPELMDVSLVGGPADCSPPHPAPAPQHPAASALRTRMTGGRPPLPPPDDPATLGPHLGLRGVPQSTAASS
# T18 sequence (P23458 875-1153 limits assumed): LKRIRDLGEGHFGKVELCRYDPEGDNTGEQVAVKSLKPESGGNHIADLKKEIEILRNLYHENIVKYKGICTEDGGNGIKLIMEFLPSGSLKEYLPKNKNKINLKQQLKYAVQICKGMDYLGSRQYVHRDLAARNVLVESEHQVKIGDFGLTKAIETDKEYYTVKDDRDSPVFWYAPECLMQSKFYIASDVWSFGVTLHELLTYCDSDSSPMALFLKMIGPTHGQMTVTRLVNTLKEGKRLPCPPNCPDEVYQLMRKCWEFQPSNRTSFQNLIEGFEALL
# T20 sequence (Q9BQI3 whole entry): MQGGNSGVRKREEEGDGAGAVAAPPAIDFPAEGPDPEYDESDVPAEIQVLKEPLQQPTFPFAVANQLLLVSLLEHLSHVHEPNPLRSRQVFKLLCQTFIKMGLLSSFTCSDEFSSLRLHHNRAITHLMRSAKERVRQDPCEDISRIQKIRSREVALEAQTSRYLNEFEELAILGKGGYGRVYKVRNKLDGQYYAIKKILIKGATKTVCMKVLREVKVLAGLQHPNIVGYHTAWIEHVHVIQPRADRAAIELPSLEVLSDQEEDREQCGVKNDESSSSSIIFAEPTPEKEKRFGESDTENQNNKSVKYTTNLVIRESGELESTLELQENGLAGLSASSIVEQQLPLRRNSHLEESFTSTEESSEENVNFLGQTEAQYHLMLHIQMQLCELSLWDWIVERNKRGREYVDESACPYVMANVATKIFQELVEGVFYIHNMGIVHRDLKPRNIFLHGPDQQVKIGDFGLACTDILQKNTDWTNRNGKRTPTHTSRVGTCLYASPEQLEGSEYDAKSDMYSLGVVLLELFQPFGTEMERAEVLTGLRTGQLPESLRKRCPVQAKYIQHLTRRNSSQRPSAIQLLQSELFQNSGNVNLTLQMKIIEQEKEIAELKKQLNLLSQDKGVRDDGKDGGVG
# T10 sequence (Q8NFD2 whole entry): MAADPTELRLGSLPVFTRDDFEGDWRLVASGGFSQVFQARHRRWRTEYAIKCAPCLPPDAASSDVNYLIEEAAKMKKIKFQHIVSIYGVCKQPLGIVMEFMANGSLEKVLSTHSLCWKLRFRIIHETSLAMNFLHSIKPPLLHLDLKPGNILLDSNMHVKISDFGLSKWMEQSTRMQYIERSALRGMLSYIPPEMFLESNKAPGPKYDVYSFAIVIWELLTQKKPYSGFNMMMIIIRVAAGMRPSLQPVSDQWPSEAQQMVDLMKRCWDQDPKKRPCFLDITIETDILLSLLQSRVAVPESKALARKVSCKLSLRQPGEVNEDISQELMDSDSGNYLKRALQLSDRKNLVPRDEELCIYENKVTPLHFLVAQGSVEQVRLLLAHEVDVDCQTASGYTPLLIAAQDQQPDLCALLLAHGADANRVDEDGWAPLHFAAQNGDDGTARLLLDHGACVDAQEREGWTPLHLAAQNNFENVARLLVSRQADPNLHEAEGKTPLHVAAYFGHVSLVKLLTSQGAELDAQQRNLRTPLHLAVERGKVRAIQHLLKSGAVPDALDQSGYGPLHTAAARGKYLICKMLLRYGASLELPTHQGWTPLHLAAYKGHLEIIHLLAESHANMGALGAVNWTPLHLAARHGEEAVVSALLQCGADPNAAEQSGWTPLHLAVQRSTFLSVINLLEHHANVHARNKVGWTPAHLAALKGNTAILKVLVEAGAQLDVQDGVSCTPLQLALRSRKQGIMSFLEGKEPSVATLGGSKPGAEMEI
# Sequence of PDGFRB (P09619 33-1106): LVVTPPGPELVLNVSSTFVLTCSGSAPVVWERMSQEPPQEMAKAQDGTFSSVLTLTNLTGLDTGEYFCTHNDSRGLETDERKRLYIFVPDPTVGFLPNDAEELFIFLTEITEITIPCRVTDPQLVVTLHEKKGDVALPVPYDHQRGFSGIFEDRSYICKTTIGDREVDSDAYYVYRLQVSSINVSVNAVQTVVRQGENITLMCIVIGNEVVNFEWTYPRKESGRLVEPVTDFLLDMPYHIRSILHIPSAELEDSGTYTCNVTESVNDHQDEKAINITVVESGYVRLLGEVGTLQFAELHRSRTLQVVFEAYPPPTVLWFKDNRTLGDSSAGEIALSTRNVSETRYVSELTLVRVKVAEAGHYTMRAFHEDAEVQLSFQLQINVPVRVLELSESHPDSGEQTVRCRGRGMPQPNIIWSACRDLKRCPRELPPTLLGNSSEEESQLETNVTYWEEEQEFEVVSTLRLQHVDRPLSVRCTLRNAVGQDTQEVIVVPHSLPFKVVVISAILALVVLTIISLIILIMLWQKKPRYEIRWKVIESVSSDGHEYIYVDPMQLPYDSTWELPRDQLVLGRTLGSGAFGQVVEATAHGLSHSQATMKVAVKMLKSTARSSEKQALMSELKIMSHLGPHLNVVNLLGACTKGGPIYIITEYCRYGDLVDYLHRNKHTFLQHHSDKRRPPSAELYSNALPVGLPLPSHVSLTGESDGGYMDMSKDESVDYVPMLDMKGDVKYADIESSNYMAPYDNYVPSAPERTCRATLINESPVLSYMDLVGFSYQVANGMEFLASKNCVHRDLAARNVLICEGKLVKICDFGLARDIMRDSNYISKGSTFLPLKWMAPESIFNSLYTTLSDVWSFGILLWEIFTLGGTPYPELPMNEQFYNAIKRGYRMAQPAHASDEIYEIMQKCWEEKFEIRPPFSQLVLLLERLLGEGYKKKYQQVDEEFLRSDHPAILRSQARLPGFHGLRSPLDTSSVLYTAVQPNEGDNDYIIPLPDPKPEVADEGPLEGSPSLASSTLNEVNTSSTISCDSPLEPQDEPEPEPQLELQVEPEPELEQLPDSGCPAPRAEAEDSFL
# T17 sequence (P23458 583-855 limits assumed): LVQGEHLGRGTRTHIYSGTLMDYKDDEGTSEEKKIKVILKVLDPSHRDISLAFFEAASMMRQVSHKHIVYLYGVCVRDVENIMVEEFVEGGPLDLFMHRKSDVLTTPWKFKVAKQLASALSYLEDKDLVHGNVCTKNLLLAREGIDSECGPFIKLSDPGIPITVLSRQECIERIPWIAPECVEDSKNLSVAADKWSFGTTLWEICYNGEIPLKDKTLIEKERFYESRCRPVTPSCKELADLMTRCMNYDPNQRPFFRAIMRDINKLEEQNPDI
# T7 sequence (Q15831 whole entry): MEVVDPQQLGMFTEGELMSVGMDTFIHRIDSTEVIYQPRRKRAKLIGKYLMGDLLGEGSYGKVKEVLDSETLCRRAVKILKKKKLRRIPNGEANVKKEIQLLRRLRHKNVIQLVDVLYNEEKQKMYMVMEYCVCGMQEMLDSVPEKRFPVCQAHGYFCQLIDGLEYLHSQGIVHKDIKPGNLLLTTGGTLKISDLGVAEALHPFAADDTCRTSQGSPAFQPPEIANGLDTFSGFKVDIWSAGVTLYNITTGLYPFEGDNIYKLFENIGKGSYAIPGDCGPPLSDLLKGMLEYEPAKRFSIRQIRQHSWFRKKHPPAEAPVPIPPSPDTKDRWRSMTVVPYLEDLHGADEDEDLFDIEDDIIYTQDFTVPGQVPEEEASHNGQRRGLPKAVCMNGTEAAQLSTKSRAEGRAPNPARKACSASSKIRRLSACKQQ
compound,measurement,setting,value
"NCCCNc1nc2c(Br)c(Br)c(Br)c(Br)c2[nH]1 [Compound 11, N-(3-aminopropyl)-4,5,6,7-tetrabromo-1H-benzo[d]imidazol-2-amine]",% binding,[1],95%
same,remaining binding at 1 µM,[2],100%
same,% binding,[3],70%
same,remaining binding at 1 µM,[4],92%
same,remaining binding at 1 µM,[5],100%
same,remaining binding at 1 µM,[6],100%
same,% binding,[7],87%
same,remaining binding at 1 µM,[8],100%
same,remaining binding at 1 µM,[9],0.8%
same,remaining binding at 1 µM,[10],96%
same,remaining binding at 1 µM,[11],80%
same,remaining binding at 1 µM,[12],94%
same,remaining binding at 1 µM,[13],70%
same,remaining binding at 1 µM,[14],7.4%
same,remaining binding at 1 µM,[15],76%
same,remaining binding at 1 µM,[16],100%
same,remaining binding at 1 µM,[17],100%
same,remaining binding at 1 µM,[18],100%
same,remaining binding at 1 µM,[19],76%
same,% binding,[20],97%
same,remaining binding at 1 µM,[21],95%
same,remaining binding at 1 µM,[22],100%
same,remaining binding at 1 µM,[23],100%
same,% binding,[24],100%
same,remaining binding at 1 µM,[25],94%
same,remaining binding at 1 µM,[26],100%
same,% binding,[27],93%
same,% binding,[28],86%
same,remaining binding at 1 µM,[29],100%
same,remaining binding at 1 µM,[30],89%
same,remaining binding at 1 µM,[31],86%
same,remaining binding at 1 µM,[32],100%
same,remaining binding at 1 µM,[33],84%
same,remaining binding at 1 µM,[34],87%
